Experimental data as given in publication PMC8162404, “Proteomimetic surface fragments distinguish targets by function” (Chemical Science, 2020).
pKd: −log10 of the molar value. Read-outs that look alike come from different tables or passages of the source.

Columns and labels:
Assay in all cases: Pull-down assay with immobilized protein and LSM libraries
CaM = molecular target: T1, CaM (Bos taurus, UniProt P62157); assay type: binding, bovine; details: 1:2 stoichiometry assumed, read-out: Surface mapping KD (apparent)
T1 construct: made in house; host or cells: E. coli BL21 (DE3)
Experimental: Pull-down assays with immobilized test proteins and foldameric LSM libraries were carried out. Proteins were equilibrated with LSM probes, and equilibrium bound fractions (FB) were determined from the unbound fractions measured by HPLC-MS methods. Hits were corrected with background binding of the resin. The protocol allowed all binding events to equilibrate irrespective of affinity, specificity, and binding kinetics. This was essential to judge overall druggability and promiscuity. Importantly, the concentration of protein and the total concentration of foldameric LSMs were equimolar, which minimized competition between the probes. This experimental setup approximated independent binding of individual library members. Results were visualized as heat maps of dissociation constants (Fig. 3).
Pull-down assay and data analysis
Pull-down assay. LSM sublibraries were screened separately as previously described.(2) Experiments were performed in the following buffers: (i) 20 mM pH 7.4 HEPES, 150 mM NaCl, 5 mM CaCl2 for CaM; (ii) 50 mM pH 7.4 HEPES, 150 mM NaCl, 1 mM TCEP, 1 mM CaCl2 for S100 proteins; (iii) 20 mM pH 7.4 HEPES, 150 mM NaCl, 1 mM TCEP for Gal-1 and (iv) 20 mM pH 7.4 HEPES, 150 mM NaCl for RecQ-WH. Assays were performed in paper filter spin cups (Thermo Scientific) with sample volumes of 100 µl. Hexahistidine-tagged proteins were immobilized on previously washed Co-NTA resin (TALON, Takara Bio USA, Inc., […]
LSM sublibrary was added, in which each of the 64 library members were used at a concentration of 1 µM. Samples were incubated at room temperature for 30 min with shaking at 100 rpm. Then, samples were centrifuged at 1000 rpm for 2 min and washed with 100 µl pull-down buffer to remove unbound compounds.
The control experiments were performed using the same compounds and the resin but without the immobilized protein. In case of competitive assays, competitor peptides were added to LSM sublibrary samples in 200 µM final concentration. In the case of Gal-1, lactose (competitor) was used in a concentration of 10 mM. Experiments were performed at least twice. Mean […]
LC-MS methods and parameters. HPLC/ESI-MS analysis was used to characterize the samples from the pull-down assay. LC-MS analysis was performed with a Thermo Scientific Dionex UltiMate 3000 HPLC system interfaced to an LTQ ion trap mass spectrometer (Thermo Electron Corp., San Jose, CA, USA). Samples were injected onto an Aeris Widepore XB-C18 (250 x 4.6 mm) analytical HPLC column using gradient elution 5-80 % solution B during 25 minutes. For pull-down samples, eluent composition was 0.1% acetic acid in distilled water (Solution A) and 0.1% acetic acid in acetonitrile (solution B). Mass spectra were acquired in full scan mode from 200 to 2000 m/z range. For overlapping peaks, selective reaction monitoring (SRM) was […]
MS data analysis. Thermo Xcalibur 2.2 software was used for peak identification and integration. The majority of the foldameric fragments could be resolved independently via HPLC-MS/MS measurements based on molecular weight, MS fragmentation pattern and retention time. Peaks of some foldamers with β3-hIle or β3-hLeu in position R2 could not be resolved, these were integrated and averaged. In the processing method, each sample component was associated to a chromatographic peak based on previously identified mass (m/z) and retention time (ref (2) and Table S7-10). Using ICIS peak detection algorithm, the general detection and integration criteria were: smoothing points: 5, baseline window: 80, area noise factor: 5, peak noise factor: 10. Using these processing setups, all raw data files were reprocessed together and analyzed. Errors in peak identification during the automatic processing were corrected manually.
Calculation of the discussed parameters
1. Bound fractions (FB.) were calculated from the HPLC-MS intensity loss of the LSM probes compared to the control where no protein was immobilized to the resin: […]

S100B = molecular target: T2, S100B (Homo sapiens, UniProt P04271); assay type: binding; details: 1:1 binding assumed, read-out: Surface mapping KD (apparent)
T2 construct: made in house; host or cells: Escherichia coli BL21(DE3)
T2 sequence (P04271 1-92): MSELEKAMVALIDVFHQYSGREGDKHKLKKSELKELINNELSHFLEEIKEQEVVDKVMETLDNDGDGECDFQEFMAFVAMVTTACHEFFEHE
Method in brief: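 Buffers were HEPES pH 7.4 with 150 mM NaCl, plus 1 mM TCEP and 1 mM CaCl2 (50 mM HEPES) for S100A4 and S100B, 1 mM TCEP for Gal-1, and no additive for RecQ-WH. Immobilized protein at 64 µM was equilibrated 30 min with the LSM sublibrary, and unbound probes were measured by LC-MS.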

Gal-1 = molecular target: T3, Gal-1 (Homo sapiens, UniProt P09382); assay type: binding; details: 1:1 binding assumed, read-out: Surface mapping KD (apparent)
T3 construct: made in house; host or cells: E. coli BL21(DE3)
T3 sequence (P09382 whole entry): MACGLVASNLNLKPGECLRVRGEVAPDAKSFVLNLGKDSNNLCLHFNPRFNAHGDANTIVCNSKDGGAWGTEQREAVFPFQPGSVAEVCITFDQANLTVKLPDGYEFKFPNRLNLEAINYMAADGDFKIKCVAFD
Method in brief: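 His-tagged protein immobilized on Co-NTA resin (64 µM) in 20 mM HEPES pH 7.4, 150 mM NaCl, equilibrated 30 min at room temperature with foldamer LSM sublibraries at equimolar total concentration. Unbound fractions quantified by HPLC-MS versus protein-free resin control; apparent KD assumes 1:1 binding.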

| SMILES | pKd (CaM; H12 library) | pKd (S100B; H12 library) | other results |
| --- | --- | --- | --- |
| C[C@@H](CC(=O)N[C@H]1CCC[C@@H]1C(=O)N[C@H]1CCC[C@@H]1C(N)=O)NC(=O)[C@H]1CCC[C@@H]1NC(=O)[C@H]1CCC[C@@H]1NC(=O)C[C@H](Cc1c[nH]c2ccccc12)NC(=O)[C@H]1CCC[C@@H]1NC(=O)[C@H]1CCC[C@@H]1N [H12 WA] | 3.52 | 4.22 | pKd (Gal-1; H12 library): 3.41 |
| CC[C@H](C)[C@@H](CC(=O)N[C@H]1CCC[C@@H]1C(=O)N[C@H]1CCC[C@@H]1C(N)=O)NC(=O)[C@H]1CCC[C@@H]1NC(=O)[C@H]1CCC[C@@H]1NC(=O)C[C@H](CO)NC(=O)[C@H]1CCC[C@@H]1NC(=O)[C@H]1CCC[C@@H]1N [H12 SI] | 3.60 | 3.38 |  |
| NCCCC[C@@H](CC(=O)N[C@H]1CCCC[C@@H]1C(=O)N[C@H]1CCCC[C@@H]1C(=O)N[C@@H](CO)CC(=O)N[C@H]1CCCC[C@@H]1C(N)=O)NC(=O)[C@H]1CCCC[C@@H]1N [H14 KS] |  |  | pKd (CaM; H14 library): 3.58; pKd (S100B; H14 library): 3.66 |
| C[C@@H](O)[C@@H](CC(=O)N[C@H]1CCCC[C@@H]1C(N)=O)NC(=O)[C@H]1CCCC[C@@H]1NC(=O)[C@H]1CCCC[C@@H]1NC(=O)C[C@H](CCCNC(=N)N)NC(=O)[C@H]1CCCC[C@@H]1N [H14 RT] |  |  | pKd (CaM; H14 library): 3.91; pKd (S100B; H14 library): 3.49 |
| N=C(N)NCCC[C@@H](CC(=O)N[C@H]1CCC[C@@H]1C(=O)N[C@H]1CCC[C@@H]1C(N)=O)NC(=O)[C@H]1CCC[C@@H]1NC(=O)[C@H]1CCC[C@@H]1NC(=O)C[C@H](CCCCN)NC(=O)[C@H]1CCC[C@@H]1NC(=O)[C@H]1CCC[C@@H]1N [H12 KR] | 3.48 | 3.84 | pKd (Gal-1; H12 library): 3.64 |
| NC(=O)[C@H]1CCCC[C@@H]1NC(=O)C[C@H](CC(=O)O)NC(=O)[C@H]1CCCC[C@@H]1NC(=O)[C@H]1CCCC[C@@H]1NC(=O)C[C@H](CO)NC(=O)[C@H]1CCCC[C@@H]1N [H14 SD] |  |  | pKd (CaM; H14 library): 3.65; pKd (Gal-1; H14 library): 3.36 |
| NCCCC[C@@H](CC(=O)N[C@H]1CCCC[C@@H]1C(N)=O)NC(=O)[C@H]1CCCC[C@@H]1NC(=O)[C@H]1CCCC[C@@H]1NC(=O)C[C@H](CO)NC(=O)[C@H]1CCCC[C@@H]1N [H14 SK] |  |  | pKd (CaM; H14 library): 4.04; pKd (S100B; H14 library): 3.74; pKd (Gal-1; H14 library): 3.36 |
| CC[C@H](C)[C@@H](CC(=O)N[C@H]1CCC[C@@H]1C(=O)N[C@H]1CCC[C@@H]1C(N)=O)NC(=O)[C@H]1CCC[C@@H]1NC(=O)[C@H]1CCC[C@@H]1NC(=O)C[C@H](CCCCN)NC(=O)[C@H]1CCC[C@@H]1NC(=O)[C@H]1CCC[C@@H]1N [H12 KI] | 3.50 | 4.15 | pKd (Gal-1; H12 library): 3.60 |
| CC(C)C[C@@H](CC(=O)N[C@H]1CCC[C@@H]1C(=O)N[C@H]1CCC[C@@H]1C(N)=O)NC(=O)[C@H]1CCC[C@@H]1NC(=O)[C@H]1CCC[C@@H]1NC(=O)C[C@H](CO)NC(=O)[C@H]1CCC[C@@H]1NC(=O)[C@H]1CCC[C@@H]1N [H12 SL] | 3.60 | 3.38 |  |
| NCCCC[C@@H](CC(=O)N[C@H]1CCCC[C@@H]1C(=O)N[C@H]1CCCC[C@@H]1C(=O)N[C@@H](CCC(N)=O)CC(=O)N[C@H]1CCCC[C@@H]1C(N)=O)NC(=O)[C@H]1CCCC[C@@H]1N [H14 KQ] |  |  | pKd (CaM; H14 library): 3.51; pKd (S100B; H14 library): 3.76 |
| C[C@@H](O)[C@@H](CC(=O)N[C@H]1CCC[C@@H]1C(=O)N[C@H]1CCC[C@@H]1C(=O)N[C@H](CC(=O)N[C@H]1CCC[C@@H]1C(=O)N[C@H]1CCC[C@@H]1C(N)=O)Cc1c[nH]c2ccccc12)NC(=O)[C@H]1CCC[C@@H]1NC(=O)[C@H]1CCC[C@@H]1N [H12 TW] | 4.60 | 3.95 |  |
| C[C@@H](CC(=O)N[C@H]1CCCC[C@@H]1C(=O)N[C@H]1CCCC[C@@H]1C(=O)N[C@@H](CCCCN)CC(=O)N[C@H]1CCCC[C@@H]1C(N)=O)NC(=O)[C@H]1CCCC[C@@H]1N [H14 AK] |  |  | pKd (CaM; H14 library): 3.74; pKd (S100B; H14 library): 3.74 |
| NC(=O)[C@H]1CCC[C@@H]1NC(=O)[C@H]1CCC[C@@H]1NC(=O)C[C@H](CC(=O)O)NC(=O)[C@H]1CCC[C@@H]1NC(=O)[C@H]1CCC[C@@H]1NC(=O)C[C@H](CO)NC(=O)[C@H]1CCC[C@@H]1NC(=O)[C@H]1CCC[C@@H]1N [H12 SD] | 3.36 |  |  |
| C[C@@H](O)[C@@H](CC(=O)N[C@H]1CCC[C@@H]1C(=O)N[C@H]1CCC[C@@H]1C(=O)N[C@@H](CCCNC(=N)N)CC(=O)N[C@H]1CCC[C@@H]1C(=O)N[C@H]1CCC[C@@H]1C(N)=O)NC(=O)[C@H]1CCC[C@@H]1NC(=O)[C@H]1CCC[C@@H]1N [H12 TR] | 3.55 | 3.54 |  |

Continued, in another order:

| pKd (CaM; H12 library) | pKd (S100B; H12 library) | SMILES | other results |
| --- | --- | --- | --- |
| 4.05 | 3.73 | C[C@@H](O)[C@@H](CC(=O)N[C@H]1CCC[C@@H]1C(=O)N[C@H]1CCC[C@@H]1C(=O)N[C@H](CC(=O)N[C@H]1CCC[C@@H]1C(=O)N[C@H]1CCC[C@@H]1C(N)=O)Cc1ccccc1)NC(=O)[C@H]1CCC[C@@H]1NC(=O)[C@H]1CCC[C@@H]1N [H12 TF] |  |
| 4.20 | 3.81 | NC(=O)C[C@@H](CC(=O)N[C@H]1CCC[C@@H]1C(=O)N[C@H]1CCC[C@@H]1C(=O)N[C@H](CC(=O)N[C@H]1CCC[C@@H]1C(=O)N[C@H]1CCC[C@@H]1C(N)=O)Cc1c[nH]c2ccccc12)NC(=O)[C@H]1CCC[C@@H]1NC(=O)[C@H]1CCC[C@@H]1N [H12 NW] |  |
| 3.82 | 3.72 | NC(=O)[C@H]1CCC[C@@H]1NC(=O)[C@H]1CCC[C@@H]1NC(=O)C[C@H](Cc1ccccc1)NC(=O)[C@H]1CCC[C@@H]1NC(=O)[C@H]1CCC[C@@H]1NC(=O)C[C@H](CO)NC(=O)[C@H]1CCC[C@@H]1NC(=O)[C@H]1CCC[C@@H]1N [H12 SF] |  |
| 3.74 | 3.34 | NC(=O)CC[C@@H](CC(=O)N[C@H]1CCC[C@@H]1C(=O)N[C@H]1CCC[C@@H]1C(=O)N[C@H](CC(=O)N[C@H]1CCC[C@@H]1C(=O)N[C@H]1CCC[C@@H]1C(N)=O)Cc1ccccc1)NC(=O)[C@H]1CCC[C@@H]1NC(=O)[C@H]1CCC[C@@H]1N [H12 QF] |  |
| 3.35 |  | C[C@@H](O)[C@@H](CC(=O)N[C@H]1CCC[C@@H]1C(=O)N[C@H]1CCC[C@@H]1C(=O)N[C@@H](CCC(N)=O)CC(=O)N[C@H]1CCC[C@@H]1C(=O)N[C@H]1CCC[C@@H]1C(N)=O)NC(=O)[C@H]1CCC[C@@H]1NC(=O)[C@H]1CCC[C@@H]1N [H12 TQ] |  |
| 3.32 |  | NC(=O)CC[C@@H](CC(=O)N[C@H]1CCC[C@@H]1C(=O)N[C@H]1CCC[C@@H]1C(=O)N[C@@H](CCC(=O)O)CC(=O)N[C@H]1CCC[C@@H]1C(=O)N[C@H]1CCC[C@@H]1C(N)=O)NC(=O)[C@H]1CCC[C@@H]1NC(=O)[C@H]1CCC[C@@H]1N [H12 QE] |  |
| 3.79 | 3.43 | NC(=O)C[C@@H](CC(=O)N[C@H]1CCC[C@@H]1C(=O)N[C@H]1CCC[C@@H]1C(=O)N[C@H](CC(=O)N[C@H]1CCC[C@@H]1C(=O)N[C@H]1CCC[C@@H]1C(N)=O)Cc1ccccc1)NC(=O)[C@H]1CCC[C@@H]1NC(=O)[C@H]1CCC[C@@H]1N [H12 NF] |  |
